Consider 11 compounds from patent publication US4503065A, “Antiinflammatory 4,5-diaryl 1-2-halo imidazoles” (E. I. Du Pont de Nemours and Company, priority 1982, dated 1985).

The test has as its system adjuvant-induced arthritis in rats. Briefly: Established adjuvant-induced arthritis in rats (paw volume of uninjected left hind paw). The format is in vivo, Charles River Lewis male rats. The settings on record: for ED50: read-out: Adjuvant Arthritis ED50 (effective dose at which a 50% decrease from control paw volume is observed); for Percent decrease from control paw volume: 7 days.

Setting [1] is: at 50 mg/kg daily dose, rat, oral gavage.
[2] abbreviates: at 27 mg/kg daily dose, rat, oral gavage.
Setting [3] is: rat, oral gavage, daily for 7 days, paw volume one day after last dose, ED50 by visual-fit regression.

Read-outs that look alike come from different tables or passages of the source.

The term ED50 denotes the midpoint of the dose-response relation.

`CC(=O)Oc1ccccc1C(=O)O` [Aspirin, reference compound]: the ED50 (Rattus norvegicus, po) worked out at 305 mg/kg.
For `Br.Fc1ccc(-c2nc(Br)[nH]c2-c2ccc(F)cc2)cc1` [Example 1, 2-Bromo-4,5-bis(4-fluorophenyl)-1H-imidazole, Hydrobromide], the “Percent decrease from control paw volume” value under setting [1] came to 33%.
Turning to `Br.COc1ccc(-c2nc(Br)[nH]c2-c2ccc(OC)cc2)cc1` [Example 2, 2-Bromo-4,5-bis(4-methoxyphenyl)-1H-imidazole, Hydrobromide], the “Percent decrease from control paw volume” value under setting [2] worked out at 46%.
For `Br.Clc1ccc(-c2nc(Br)[nH]c2-c2ccc(Cl)cc2)cc1` [Example 3, 2-Bromo-4,5-bis(4-chlorophenyl)-1H-imidazole, Hydrobromide], the ED50 under setting [3] is 5.2 mg/kg.
`Br.CSc1ccc(-c2nc(Br)[nH]c2-c2ccc(SC)cc2)cc1` [Example 4, 2-Bromo-4,5-bis(4-methylthiophenyl)-1H-imidazole, Hydrobromide]: the “Percent decrease from control paw volume” value under setting [2] is reported as 26%.
On the same count and under the same terms, in the case of `COc1ccc(-c2nc(Cl)[nH]c2-c2ccc(OC)cc2)cc1.Cl` [Example 5, 2-Chloro-4,5-bis(4-methoxyphenyl)-1H-imidazole, Hydrochloride] it was 17%.
Same read-out and setting: in the case of `COc1ccc(-c2nc(Cl)n(C)c2-c2ccc(OC)cc2)cc1` [Example 6, 2-Chloro-4,5-bis(4-methoxyphenyl)-1-methyl-1H-imidazole] it was 35%.
Take `CCOC(C)n1c(Cl)nc(-c2ccc(OC)cc2)c1-c1ccc(OC)cc1` (centres unmarked) [Example 7, 2-Chloro-1-(1-ethoxyethyl)-4,5-bis(4-methoxyphenyl)-1H-imidazole]: the “Percent decrease from control paw volume” value under setting [1] is 37%.
`CC(C)Cc1ccc(C(C)C(=O)O)cc1` (centres unmarked) [Ibuprofen, reference compound]: the ED50 under setting [3] turned out to be 100 mg/kg.
In the case of `COc1ccc2c(c1)c(CC(=O)O)c(C)n2C(=O)c1ccc(Cl)cc1` [Indomethacin, reference compound], the 50% effective dose (ED50) (Rattus norvegicus, po) came out at 0.3 mg/kg.
Consider `CCCCC1C(=O)N(c2ccccc2)N(c2ccccc2)C1=O` [Phenylbutazone, reference compound], for which the ED50 under setting [3] came to 10 mg/kg.
